Test results taken from US10869931B2, “Polyethylene glycol-modified angiogenesis inhibitor HM-1 and application thereof” (NANJING ANJI BIOLOGICAL TECHNOLOGY CO.,LTD, priority 2016, dated 2020).
Where no end group is shown, it is not given here.

What was measured:
Melanoma tumor cells = assay: MTT proliferation inhibition, melanoma cells; assay type: cell-based, human; parameters: concentration or dose not given beside the values; details: 48 h
Procedure: (§1) The activity of mPEG-HM-1 to inhibit the growth of various tumor cells was examined by MTT assay. The tumor cells were cultured to a concentration of 90% or more in a 37° C., 5% CO2 incubator and collected by trypsinization. The cells were resuspended in the culture medium and counted under a microscope to adjust the cell concentration to 2×10^4 cells/mL, the cell suspension was inoculated into a 96-well plate at 100 μL/well and incubated overnight at 37° C. in a 5% CO2 incubator. mPEG-HM-1 was diluted with the culture solution to each predetermined concentration. Docetaxel is diluted to the final concentration with the culture medium. After the cells were fully attached, each dilution was added to a 96-well plate (100 μL/well). The mPEG-HM-1 dilution was added as a drug-administered group, and docetaxel was added as a positive control group, and a culture solution without any drug was used as a negative control group. Incubate for 48 h at 37° C. in a 5% CO2 incubator. 5 mg/mL of MTT was added to a 96-well plate at 20 μL per well, and incubation was continued for 4 hours. The medium was aspirated, dissolved in 150 μL of DMSO per well, and gently mixed by shaking for 10 min. The absorbance was measured at a measurement wavelength of 570 nm and a reference wavelength of 630 nm using a microplate reader, and the rate of growth inhibition (proliferation inhibition, PI) was calculated. The formula is as follows: PI (%)=1−administration group/negative group
(§2) The test was repeated 3 times independently, and the results obtained by the test were expressed as mean±SD, and the test results are shown in Table 15 to Table 18.

[1] = system: Ovarian cancer tumor cells; assay: MTT proliferation inhibition, ovarian cancer cells; assay type: cell-based, human; parameters: concentration or dose not given beside the values; details: 48 h
Procedure: as §1, §2

mouse spleen lymphocytes = assay: ConA-stimulated mouse spleen lymphocyte proliferation (MTT); assay type: cell-based; details: ConA 5 μg/mL, 48 h
Procedure: Tris-NH4Cl was used to break the red blood cells, and the cells were allowed to stand in an ice water bath for 4 min, centrifuged (1000 rpm×5 min), the supernatant was discarded, and the cells were washed twice with sterile PBS. Finally, cells were suspended in RPMI 1640 medium (5 mL) supplemented with 10% calf serum, counted, adjusted to a cell concentration of 5×10^6/mL, and cultured in a 96-well culture plate The test group consisted of blank control group, concanavalin A (ConA) group, dexamethasone (Dex) group (0.02 mg/mL) and mPEG-HM-1 group. […] The cells were cultured in a 37° C. cell culture chamber for 48 h. After the completion of the culture, 20 μL of MTT was added to each well, and the culture was continued for 4 h. Finally, all the solutions in each well were discarded, 100 μL of DMSO was added to each well, and the mixture was shaken and detected by a microplate reader OD value at 570 nm, 5 parallels per hole.

Lung cancer tumor cells = assay: MTT proliferation inhibition, lung cancer cells; assay type: cell-based, human; parameters: concentration or dose not given beside the values; details: 48 h
Procedure: as §1, §2

[2] = system: IL-1β production by mouse peritoneal macrophages; assay: IL-1β production by mouse peritoneal macrophages (ELISA); assay type: cell-based; details: 48 h
Procedure: (1) IL-1β production: mice were intraperitoneally injected with 1 mL of broth (containing 6%) starch, and three days later, the mouse peritoneal macrophages were aseptically taken, washed twice with 1640 medium, and the cell concentration was adjusted to 2×10^6 cells/mL, inject into a 24-well culture plate, 1 mL per well, incubate for 3 hours in a cell culture incubator, shake once every 30 minutes, and allow the cells to fully adhere. Then, it was washed twice with the culture solution to remove unattached cells. The blank group was added with PBS, the positive group was added with the positive drug dexamethasone (Dex), the model group was not administered, to the experimental group was added low, medium and high three concentrations of mPEG-HM-1, and the culture was continued for 48 hours after the administration, 1000 r/min. Centrifuge for 15 min. The supernatant was taken as a sample for testing activity of IL-1β.
(2) Determination of IL-1β content: using R&D mouse IL-1β enzyme-linked immunosorbent assay kit, according to the kit instructions as follows: respectively, the tested samples and different concentrations of standard products, sealed with sealing tape the reaction well and incubated at 37° C. for 90 min; the plate was washed four times; the biotinylated antibody working solution (100 μL/well) was added, and the reaction well was sealed with sealing paper, incubated at 37° c. for 60 min; the plate was washed four times; Add the enzyme conjugate working solution (100 μL/well), seal the reaction well with sealing paper, incubate at 37° C. for 30 min; wash the plate four times; add color reagent (100 μL/well), incubate at 37° C. 10-20 min, add stop solution (100 μL/well), mix and measure OD450 value.

[3] = system: Pancreatic cancer tumor cells; assay: MTT proliferation inhibition, pancreatic cancer cells; assay type: cell-based, human; parameters: concentration or dose not given beside the values; details: 48 h
Procedure: as §1, §2

[4] = system: Head and neck cancer tumor cells; assay: MTT proliferation inhibition, head and neck cancer cells; assay type: cell-based, human; parameters: concentration or dose not given beside the values; details: 48 h
Procedure: as §1, §2

[5] = system: Cervical cancer tumor cells; assay: MTT proliferation inhibition, cervical cancer cells; assay type: cell-based, human; parameters: concentration or dose not given beside the values; details: 48 h
Procedure: as §1, §2

[6] = system: Bladder Cancer tumor cells; assay: MTT proliferation inhibition, bladder cancer cells; assay type: cell-based, human; parameters: concentration or dose not given beside the values; details: 48 h
Procedure: as §1, §2

[7] = system: Thyroid cancer tumor cells; assay: MTT proliferation inhibition, thyroid cancer cells; assay type: cell-based, human; parameters: concentration or dose not given beside the values; details: 48 h
Procedure: as §1, §2

[8] = system: Kidney cancer tumor cells; assay: MTT proliferation inhibition, kidney cancer cells; assay type: cell-based, human; parameters: concentration or dose not given beside the values; details: 48 h
Procedure: as §1, §2

| Substance | rate of growth inhibition (Melanoma tumor cells) [%] | rate of growth inhibition [1] [%] | A570 nm/A630 nm (mouse spleen lymphocytes; 40 μg/mL) | Inhibition Rate of spleen lymphocyte proliferation (mouse spleen lymphocytes; 40 μg/mL) [%] | A570 nm/A630 nm (mouse spleen lymphocytes; 80 μg/mL) | Inhibition Rate of spleen lymphocyte proliferation (mouse spleen lymphocytes; 80 μg/mL) [%] | A570 nm/A630 nm (mouse spleen lymphocytes; 160 μg/mL) | Inhibition Rate of spleen lymphocyte proliferation (mouse spleen lymphocytes; 160 μg/mL) [%] | rate of growth inhibition (Lung cancer tumor cells) [%] | IL-1β ([2]; 40 μg/mL) [pg/mL] | Inhibition Rate of IL-1β production ([2]; 40 μg/mL) [%] | IL-1β ([2]; 80 μg/mL) [pg/mL] | Inhibition Rate of IL-1β production ([2]; 80 μg/mL) [%] | IL-1β ([2]; 160 μg/mL) [pg/mL] | rate of growth inhibition [3] [%] | rate of growth inhibition [4] [%] | rate of growth inhibition [5] [%] | rate of growth inhibition [6] [%] | rate of growth inhibition [7] [%] | rate of growth inhibition [8] [%] | also measured |
| --- | --- | --- | --- | --- | --- | --- | --- | --- | --- | --- | --- | --- | --- | --- | --- | --- | --- | --- | --- | --- | --- |
| mPEG-bALD40k-Arg-Gly-Ala-Asp-Arg-Ala-Gly-Gly-Gly-Gly-Arg-Gly-Asp ({mPEG‑bALD 40 kDa}-RGADRAGGGGRGD) [mPEG-bALD40k-HM-1] | 73.10 ± 20.55 | 72.66 ± 19.03 | 0.6191 ± 0.0986 | 10.77 | 0.5089 ± 0.1230 | 26.65 | 0.4848 ± 0.1146 | 30.12 | 56.47 ± 14.15 | 740.78 ± 16.79 | 19.67 | 648.10 ± 14.55 | 29.72 | 518.91 ± 12.90 | 62.85 ± 18.74 | 40.09 ± 12.02 | 70.34 ± 19.04 | 43.82 ± 10.31 | 45.53 ± 12.98 | 60.06 ± 18.88 | Inhibition Rate of IL-1β production ([2]; 160 μg/mL): 43.73% |
| mPEG-bALD5k-Arg-Gly-Ala-Asp-Arg-Ala-Gly-Gly-Gly-Gly-Arg-Gly-Asp ({mPEG‑bALD 5 kDa}-RGADRAGGGGRGD) [mPEG-bALD5k-HM-1] | 65.62 ± 20.35 | 66.76 ± 18.59 |  |  |  |  |  |  | 47.56 ± 12.22 |  |  |  |  |  | 53.14 ± 10.34 | 39.92 ± 11.33 | 64.52 ± 16.88 | 36.03 ± 10.12 | 42.19 ± 10.35 | 57.63 ± 12.09 | A570 nm/A630 nm (mouse spleen lymphocytes; 5 μg/mL): 0.6257 ± 0.1022; Inhibition Rate of spleen lymphocyte proliferation (mouse spleen lymphocytes; 5 μg/mL): 9.82%; A570 nm/A630 nm (mouse spleen lymphocytes; 10 μg/mL): 0.5645 ± 0.1114; Inhibition Rate of spleen lymphocyte proliferation (mouse spleen lymphocytes; 10 μg/mL): 18.64%; A570 nm/A630 nm (mouse spleen lymphocytes; 20 μg/mL): 0.4957 ± 0.1286; Inhibition Rate of spleen lymphocyte proliferation (mouse spleen lymphocytes; 20 μg/mL): 28.56%; IL-1β ([2]; 5 μg/mL): 729.25 ± 18.34 pg/mL; Inhibition Rate of IL-1β production ([2]; 5 μg/mL): 20.92%; IL-1β ([2]; 10 μg/mL): 659.63 ± 16.52 pg/mL; Inhibition Rate of IL-1β production ([2]; 10 μg/mL): 28.47%; IL-1β ([2]; 20 μg/mL): 533.11 ± 10.87 pg/mL; Inhibition Rate of IL-1β production ([2]; 20 μg/mL): 42.19% |
| mPEG2-NHS40k-Arg-Gly-Ala-Asp-Arg-Ala-Gly-Gly-Gly-Gly-Arg-Gly-Asp ({mPEG2‑NHS 40 kDa}-RGADRAGGGGRGD) [mPEG2-NHS40k-HM-1] | 66.72 ± 20.85 | 61.59 ± 13.61 | 0.6191 ± 0.0984 | 10.59 | 0.4985 ± 0.1248 | 28.01 | 0.4827 ± 0.1136 | 30.28 | 49.39 ± 16.55 | 756.84 ± 15.32 | 18.28 | 673.30 ± 16.71 | 27.30 | 568.00 ± 10.82 | 51.49 ± 16.28 | 40.36 ± 10.53 | 57.33 ± 14.28 | 45.60 ± 10.11 | 45.19 ± 14.07 | 58.73 ± 14.31 | Inhibition Rate of IL-1β production ([2]; 160 μg/mL): 38.67% |
